# According to paper PMC10381309 (Journal of Fungi, 2023):
# Columns and labels:
# Assay in all cases: Chequerboard synergism assay (FICI)
# Assay type in all cases: cell-based
# [1] = system: Exophiala dermatitidis (ATCC 28869); conditions: E. dermatitidis
# Protocol: (§1) To assess the type of interaction between the hit drugs and the antifungal drugs most used in the treatment of CBM (itraconazole and terbinafine), the fractional inhibitory concentration index (FICI) was determined, which defines the type of interaction between drugs in combination as follows: synergism if FICI ≤ 0.5; indifference if 0.5 < FICI ≤ 4; and antagonism if FICI > 4 [39]. The FICI was obtained by the sum of the fractional inhibitory concentrations (FIC) or by the formula: (A/MIC(a) = FIC_A) + (B/MIC(b) = FIC_B) = FICI, where: A = MIC of the drug (a) in combination; MIC (a) = MIC of drug (a) alone; B = MIC of drug (b) in combination; and MIC (b) = MIC of drug (b) alone. The test was carried out using the chequerboard method, in which the two drugs were applied in a single well of a 96-well plate, so that in each of the wells there were different concentrations of the combinations between the substance and the antifungal agent (Figure S1). Drug dilutions were prepared following the methodology proposed by EUCAST, starting from a stock solution of the hit drug or antifungal drug 100× concentrated, according to the methodology described to determine the MIC [36]. Hit drug A/antifungal drug B serial microdilution preparations were performed following the above mentioned protocol, observing the final concentration in the wells after the addition of drugs and inoculum. […] Column 12 was reserved for drug B (itraconazole or terbinafine) susceptibility testing. Row H was reserved for the selected NCC substance. The other combined drug and substance concentrations were distributed between columns 2 and 11 in rows A to G. Drug concentrations ranged from 0.062 μM to 4 µM for itraconazole and terbinafine, and from 0.125 μM to 64 µM for the hit drug on the combination boards.
# [2] = system: Rhinocladiela similis (CFP 00790); conditions: R. similis
# Protocol: as §1
# [3] = system: Exophiala heteromorpha (ATCC 28180); conditions: E. heteromorpha
# Protocol: as §1
# [4] = system: Cladophialophora carrionii (CFP 00910); conditions: C. carrionii
# Protocol: as §1
# [5] = system: Phialophora verrucosa (CFP 00937); conditions: P. verrucosa
# Protocol: as §1
# [6] = system: Fonsecaea nubica (CFP 00912); conditions: F. nubica
# Protocol: as §1
# [7] = system: Fonsecaea monophora (CFP 00911); conditions: F. monophora
# Protocol: as §1
# [8] = system: Fonsecaea pedrosoi (CFP 00791); conditions: F. pedrosoi
# Protocol: as §1
compound,measurement,setting,value
CCCSc1ccc2nc(NC(=O)OC)[nH]c2c1 [Albendazole],FICI Albendazole + Itraconazole,[1]; combination with itraconazole,1.06
same,FICI Albendazole + Terbinafine,[1]; combination with terbinafine,1.06
same,FICI Albendazole + Itraconazole,[2]; combination with itraconazole,0.62
same,FICI Albendazole + Terbinafine,[2]; combination with terbinafine,2
same,FICI Albendazole + Itraconazole,[3]; combination with itraconazole,1.03
same,FICI Albendazole + Terbinafine,[3]; combination with terbinafine,1.06
same,FICI Albendazole + Itraconazole,[4]; combination with itraconazole,1.06
same,FICI Albendazole + Terbinafine,[4]; combination with terbinafine,1.06
same,FICI Albendazole + Itraconazole,[5]; combination with itraconazole,1.125
same,FICI Albendazole + Terbinafine,[5]; combination with terbinafine,2.12
same,FICI Albendazole + Itraconazole,[6]; combination with itraconazole,1.25
same,FICI Albendazole + Terbinafine,[6]; combination with terbinafine,1.12
same,FICI Albendazole + Itraconazole,[7]; combination with itraconazole,1.50
same,FICI Albendazole + Terbinafine,[7]; combination with terbinafine,1.12
same,FICI Albendazole + Itraconazole,[8]; combination with itraconazole,1
same,FICI Albendazole + Terbinafine,[8]; combination with terbinafine,1.12
